Data published in US20070010671A1, “Novel quinazoline derivatives and methods of treatment related to the use thereof” (priority 2003, published 2007).

These molecules were tested against MCH receptor (Homo sapiens, UniProt Q99705) (assay: High throughput functional screening FLIPR/FDSS6000: inhibition of MCH-evoked intracellular Ca2+ changes). Details: class by percent of control at 10^-7 M or IC50.
Format: cell-based
Outline: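 Constitutively active non-endogenous MCH-R cells; Fluo4-AM 4 μM, 2.5 mM probenecid, 1 hr, 37° C; cpd 3 min, 37° C; MCH 50 nM (antagonist mode); kinetic Ca2+ read Ex488/Em530, 290 s.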

| Compound | class |
| --- | --- |
| CC(C)NC(=O)NC[C@H]1CC[C@@H](Nc2nc(N(C)C)c3ccccc3n2)CC1 [compound 443] | 3 (Class 3: The value of percent of control at 10^−7 M was more than 60% or the value of IC50 was more than 200 nM.) |
| COc1ccc(NC(=O)NC[C@H]2CC[C@@H](Nc3nc(N(C)C)c4ccccc4n3)CC2)cc1 [compound 444, N-[(cis-4-{[4-(dimethylamino)quinazolin-2-yl]amino}cyclohexyl)methyl]-N′-(4-methoxyphenyl)urea] | 2 (Class 2: The value of percent of control at 10^−7 M was from 40% to 60% or the value of IC50 was from 50 nM to 200 nM.) |
| Cc1ccc(NC(=O)NC[C@H]2CC[C@@H](Nc3nc(N(C)C)c4ccccc4n3)CC2)c([N+](=O)[O-])c1 [compound 445, N-[(cis-4-{[4-(dimethylamino)quinazolin-2-yl]amino}cyclohexyl)methyl]-N′-(4-methyl-2-nitrophenyl)urea] | 2 (Class 2: The value of percent of control at 10^−7 M was from 40% to 60% or the value of IC50 was from 50 nM to 200 nM.) |
| COc1ccccc1NC(=O)NC[C@H]1CC[C@@H](Nc2nc(N(C)C)c3ccccc3n2)CC1 [compound 446, N-[(cis-4-{[4-(dimethylamino)quinazolin-2-yl]amino}cyclohexyl)methyl]-N′-(2-methoxyphenyl)urea] | 2 (Class 2: The value of percent of control at 10^−7 M was from 40% to 60% or the value of IC50 was from 50 nM to 200 nM.) |
| COc1cccc(NC(=O)NC[C@H]2CC[C@@H](Nc3nc(N(C)C)c4ccccc4n3)CC2)c1 [compound 447, N-[(cis-4-{[4-(dimethylamino)quinazolin-2-yl]amino}cyclohexyl)methyl]-N′-(3-methoxyphenyl)urea] | 2 (Class 2: The value of percent of control at 10^−7 M was from 40% to 60% or the value of IC50 was from 50 nM to 200 nM.) |
| CSc1ccc(NC(=O)NC[C@H]2CC[C@@H](Nc3nc(N(C)C)c4ccccc4n3)CC2)cc1 [compound 448, N-[(cis-4-{[4-(dimethylamino)quinazolin-2-yl]amino}cyclohexyl)methyl]-N′-[4-(methylthio)phenyl]urea] | 1 (Class 1: The value of percent of control at 10^−7 M was less than 40% or the value of IC50 was less than 50 nM.) |
| COc1ccc(CNC(=O)NC[C@H]2CC[C@@H](Nc3nc(N(C)C)c4ccccc4n3)CC2)cc1 [compound 449] | 3 (Class 3: The value of percent of control at 10^−7 M was more than 60% or the value of IC50 was more than 200 nM.) |
| CN(C)c1nc(N[C@H]2CC[C@@H](CNC(=O)Nc3cccc4ccccc34)CC2)nc2ccccc12 [compound 450, N-[(cis-4-{[4-(dimethylamino)quinazolin-2-yl]amino}cyclohexyl)methyl]-N′-1-naphthylurea] | 2 (Class 2: The value of percent of control at 10^−7 M was from 40% to 60% or the value of IC50 was from 50 nM to 200 nM.) |
| CN(C)c1nc(N[C@H]2CC[C@@H](CNC(=O)NC3C[C@H]3c3ccccc3)CC2)nc2ccccc12 (stereo partly shown) [compound 451] | 3 (Class 3: The value of percent of control at 10^−7 M was more than 60% or the value of IC50 was more than 200 nM.) |
| CN(C)c1nc(N[C@H]2CC[C@@H](CNC(=O)Nc3ccccc3)CC2)nc2ccccc12 [compound 452, N-[(cis-4-{[4-(dimethylamino)quinazolin-2-yl]amino}cyclohexyl)methyl]-N′-phenylurea] | 1 (Class 1: The value of percent of control at 10^−7 M was less than 40% or the value of IC50 was less than 50 nM.) |
| CN(C)c1nc(N[C@H]2CC[C@@H](CNC(=O)Nc3ccc(Oc4ccccc4)cc3)CC2)nc2ccccc12 [compound 453] | 3 (Class 3: The value of percent of control at 10^−7 M was more than 60% or the value of IC50 was more than 200 nM.) |
| CCCCCNC(=O)NC[C@H]1CC[C@@H](Nc2nc(N(C)C)c3ccccc3n2)CC1 [compound 454, N-[(cis-4-{[4-(dimethylamino)quinazolin-2-yl]amino}cyclohexyl)methyl]-N′-pentylurea] | 2 (Class 2: The value of percent of control at 10^−7 M was from 40% to 60% or the value of IC50 was from 50 nM to 200 nM.) |
| CN(C)c1nc(N[C@H]2CC[C@@H](CNC(=O)Nc3ccccc3C(F)(F)F)CC2)nc2ccccc12 [compound 455, N-[(cis-4-{[4-(dimethylamino)quinazolin-2-yl]amino}cyclohexyl)methyl]-N′-[2-(trifluoromethyl)phenyl]urea] | 1 (Class 1: The value of percent of control at 10^−7 M was less than 40% or the value of IC50 was less than 50 nM.) |
| CN(C)c1nc(N[C@H]2CC[C@@H](CNC(=O)Nc3cccc(C(F)(F)F)c3)CC2)nc2ccccc12 [compound 456] | 3 (Class 3: The value of percent of control at 10^−7 M was more than 60% or the value of IC50 was more than 200 nM.) |
| Cc1ccc(NC(=O)NC[C@H]2CC[C@@H](Nc3nc(N(C)C)c4ccccc4n3)CC2)cc1 [compound 457, N-[(cis-4-{[4-(dimethylamino)quinazolin-2-yl]amino}cyclohexyl)methyl]-N′-(4-methylphenyl)urea] | 1 (Class 1: The value of percent of control at 10^−7 M was less than 40% or the value of IC50 was less than 50 nM.) |
| Cc1cc(C)c(NC(=O)NC[C@H]2CC[C@@H](Nc3nc(N(C)C)c4ccccc4n3)CC2)c(C)c1 [compound 458, N-[(cis-4-{[4-(dimethylamino)quinazolin-2-yl]amino}cyclohexyl)methyl]-N′-mesitylurea] | 1 (Class 1: The value of percent of control at 10^−7 M was less than 40% or the value of IC50 was less than 50 nM.) |
| Cc1cccc(NC(=O)NC[C@H]2CC[C@@H](Nc3nc(N(C)C)c4ccccc4n3)CC2)c1 [compound 459, N-[(cis-4-{[4-(dimethylamino)quinazolin-2-yl]amino}cyclohexyl)methyl]-N′-(3-methylphenyl)urea] | 2 (Class 2: The value of percent of control at 10^−7 M was from 40% to 60% or the value of IC50 was from 50 nM to 200 nM.) |
| Cc1ccccc1NC(=O)NC[C@H]1CC[C@@H](Nc2nc(N(C)C)c3ccccc3n2)CC1 [compound 460, N-[(cis-4-{[4-(dimethylamino)quinazolin-2-yl]amino}cyclohexyl)methyl]-N′-(2-methylphenyl)urea] | 1 (Class 1: The value of percent of control at 10^−7 M was less than 40% or the value of IC50 was less than 50 nM.) |
| CN(C)c1nc(N[C@H]2CC[C@@H](CNC(=O)Nc3c(Cl)cc(Cl)cc3Cl)CC2)nc2ccccc12 [compound 463, N-[(cis-4-{[4-(dimethylamino)quinazolin-2-yl]amino}cyclohexyl)methyl]-N′-(2,4,6-trichlorophenyl)urea] | 1 (Class 1: The value of percent of control at 10^−7 M was less than 40% or the value of IC50 was less than 50 nM.) |
| Cc1ccc(NC(=O)NC[C@H]2CC[C@@H](Nc3nc(N(C)C)c4ccccc4n3)CC2)cc1Cl [compound 464] | 3 (Class 3: The value of percent of control at 10^−7 M was more than 60% or the value of IC50 was more than 200 nM.) |
| CC(NC(=O)NCC1CCC(Nc2nc(N(C)C)c3ccccc3n2)CC1)c1ccccc1 (stereo not shown) [compound 466, 1-[4-(4-Dimethylamino-quinazolin-2-ylamino)-cyclohexylmethyl]-3-(1-phenyl-ethyl)-urea] | 2 (Class 2: The value of percent of control at 10^−7 M was from 40% to 60% or the value of IC50 was from 50 nM to 200 nM.) |
| CC(NC(=O)NCC1CCC(Nc2nc(N(C)C)c3ccccc3n2)CC1)c1cccc2ccccc12 (stereo not shown) [compound 467] | 2 (Class 2: The value of percent of control at 10^−7 M was from 40% to 60% or the value of IC50 was from 50 nM to 200 nM.) |
